This note sets out measurements from patent publication US9493444B2 (Merck Patent GmbH, priority 2012, dated 2016).

The test system of this assay is Wnt pathway (TCF-dependent transcription in HEK293 luciferase reporter cell line with ER-DSH construct). Description: Cellular assay for Wnt pathway activity (luciferase reporter). The assay is classed as cell-based. The settings on record: Homo sapiens; Wnt pathway inhibition, HEK293 luciferase reporter cells (ER-DSH, TCF promoter), 24 hours incubation, estrogen-induced. The procedure, abridged:
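Luminescent luciferase read-out after 24 h compound exposure at 1 nM to 30 μM, with TCF-driven transcription switched on by estrogen addition. IC50 values come from curve fits of data normalized against the vehicle-only control.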
`CC(=O)N(C)CCN(C)c1cncc(Oc2ccc(-n3ccnc3)cc2)n1` [Compound 118] registered an IC50 below 200 nM.

As to `CC(=O)NCCSc1cncc(Oc2ccc(F)cc2)n1` [Compound 119, N-{2-[6-(4-Fluoro-phenoxy)-pyrazin-2-ylsulfanyl]-ethyl}-acetamide], the IC50 lay within 1000 to 10000 nM. For `CNCCN(C)c1cncc(Oc2ccc(-c3cc(C(F)(F)F)ccn3)cc2)n1` [Compound 120, N,N′-Dimethyl-N-{6-[4-(4-trifluoro-methyl-pyridin-2-yl)-phenoxy]-pyrazin-2-yl}-ethane-1,2-diamine], the IC50 was in the range of 1000 to 10000 nM. With `CC(=O)N(C)CCN(C)c1cncc(Oc2ccc(C(F)(F)F)cc2)n1` [Compound 121, N-Methyl-N-(2-{methyl-[6-(4-trifluoro-methyl-phenoxy)-pyrazin-2-yl]-amino}-ethyl)-acetamide], the IC50 is 200 to 1000 nM. For `CC(=O)N(C)CCN(C)c1cncc(Oc2ccc(C#N)cc2)n1` [Compound 122, N-(2-{[6-(4-Cyano-phenoxy)-pyrazin-2-yl]-methyl-amino}-ethyl)-N-methyl-acetamide], the IC50 is below 200 nM. The molecule `CCOc1ccc(Oc2cncc(N(C)CCN(C)C(C)=O)n2)cc1` [Compound 123, N-(2-{[6-(4-Ethoxy-phenoxy)-pyrazin-2-yl]-methyl-amino}-ethyl)-N-methyl-acetamide] came in with an IC50 below 200 nM. `CC(=O)N(C)CCN(C)c1cncc(Oc2ccc(-c3nc4cc(C#N)ccc4[nH]3)cc2)n1` [Compound 124, N-[2-({6-[4-(5-Cyano-1H-benzo-imidazo-2-yl)-phenoxy]-pyrazin-2-yl}-methyl-amino)-ethyl]-N-methyl-acetamide] had a half-maximal inhibitory concentration (IC50) of 200 to 1000 nM. Molecule `CC(=O)c1ccc(Oc2cncc(N(C)CCN(C)C(C)=O)n2)cc1` [Compound 125, N-(2-{[6-(4-Acetyl-phenoxy)-pyrazin-2-yl]-methyl-amino}-ethyl)-N-methyl-acetamide] showed an IC50 of 200 to 1000 nM.

Consider `CC(=O)N(C)CCN(C)c1cncc(Oc2ccc(C(=O)N3CCCC(c4cccn4C)=N3)cc2)n1` [Compound 126, N-Methyl-N-{2-[methyl-(6-{4-[3-(1-methyl-1H-pyrrol-2-yl)-5,6-dihydro-4H-pyridazine-1-carbonyl]-phenoxy}-pyrazin-2-yl)-amino]-ethyl} acetamide], for which the IC50 was in the range of 1000 to 10000 nM. Next, `CC(=O)N(C)CCN(C)c1cncc(Oc2ccc(Cn3nc(-c4cc(F)cc(F)c4)ccc3=O)cc2)n1` [Compound 127, N-{2-[(6-{4-[3-(3,5-Difluoro-phenyl)-6-oxo-6H-pyridazin-1-ylmethyl]-phenoxy}-pyrazin-2-yl)-methyl-amino]-ethyl}-N-methyl-acetamide]: 1000 to 10000 nM.

Take `CC(=O)N(C)CCN(C)c1cncc(Oc2ccc(-c3cc(C(F)(F)F)ccn3)cc2)n1` [Compound 128, N-Methyl-N-[2-(methyl-{6-[4-(4-trifluoro-methyl-pyridin-2-yl)-phenoxy]-pyrazin-2-yl}-amino)-ethyl]-acetamide]: the IC50 lay within 1000 to 10000 nM.

As to `CC(=O)N(C)CCN(C)c1cncc(Sc2ccc(F)cc2)n1` [Compound 129, N-(2-{[6-(4-Fluoro-phenyl-sulfanyl)-pyrazin-2-yl]-methyl-amino}-ethyl)-N-methyl-acetamide], the IC50 was 200 to 1000 nM.

Molecule `CC(=O)N(C)CCN(C)c1cncc(Sc2ccc(Br)cc2)n1` [Compound 130, N-(2-{[6-(4-Bromo-phenyl-sulfanyl)-pyrazin-2-yl]-methyl-amino}-ethyl)-N-methyl-acetamide] displayed an IC50 of 1000 to 10000 nM. On to `CC(=O)N(C)CCN(C)c1cncc(Oc2ccc(OC(F)(F)F)cc2)n1` [Compound 131, N-Methyl-N-(2-{methyl-[6-(4-trifluoro-methoxy)-pyrazin-2-yl]-amino}-ethyl)-acetamide], for which the IC50 is below 200 nM.

`CC(=O)N(C)CCN(C)c1cncc(Oc2ccc(N3CCN(c4ccncc4)CC3)cc2)n1` [Compound 132, N-Methyl-N-[2-(methyl-{6-[4-(4-pyridin-4-yl-piperazin-1-yl)-phenoxy]-pyrazin-2-yl}-amino)-ethyl]-acetamide] gave a concentration for half-maximal inhibition (IC50) below 200 nM. As to `CC(=O)N(C)CCN(C)c1cncc(Oc2ccc(-c3ccccn3)cc2)n1` [Compound 133, N-Methyl-N-(2-{methyl-[6-(4-pyridin-2-yl-phenoxy)-pyrazin-2-yl]-amino}-ethyl)-acetamide], the IC50 is below 200 nM. Consider `CNCCN(C)c1cncc(Oc2ccc(-c3cccc(N4CCN(C)CC4)n3)cc2)n1` [Compound 134, N,N′-Dimethyl-N-(6-{4-[6-(4-methyl-piperazin-1-yl)-pyridin-2-yl]-phenoxy}-pyrazin-2-yl)-ethane-1,2-diamine], for which the IC50 is 1000 to 10000 nM.

With `CCC1Sc2ccccc2NC1c1ccc(Oc2cncc(N(C)CCN(C)C(C)=O)n2)cc1` (stereo not drawn) [Compound 135, N-[2-({6-[4-(2-Ethyl-3,4-dihydro-2H-benzo[1,4]thiazin-3-yl)-phenoxy]-pyrazin-2-yl}-methyl-amino)-ethyl]-N-methyl-acetamide], the half-inhibitory concentration (IC50) fell in the range of 1000 to 10000 nM. `CC(=O)N(C)CCSc1cncc(Oc2ccc(F)cc2)n1` [Compound 136, N-{2-[6-(4-Fluoro-phenoxy)-pyrazin-2-ylsulfanyl]-ethyl}-N-methyl-acetamide] returned an IC50 below 200 nM.

The molecule `CCOC(=O)Cc1ccc(Oc2cncc(N(C)CCN(C)C(C)=O)n2)cc1` [Compound 137, [4-(6-{[2-(Acetyl-methyl-amino)-ethyl]-methyl-amino}-pyrazin-2-yloxy)-phenyl]-acetic acid ethyl ester] registered an IC50 below 200 nM.

With `CCOC(=O)C(C)c1ccc(Oc2cncc(N(C)CCN(C)C(C)=O)n2)cc1` (stereo not drawn) [Compound 138, 2-[4-(6-{[2-(Acetyl-methyl-amino)-ethyl]-methyl-amino}-pyrazin-2-yloxy)-phenyl]-propionic acid ethyl ester], the IC50 was 200 to 1000 nM. For `CCC(C)(C)c1ccc(Oc2cncc(N(C)CCN(C)C(C)=O)n2)cc1` [Compound 139, N-[2-({6-[4-(1,1-Dimethyl-propyl)-phenoxy]-pyrazin-2-yl}-methyl-amino)-ethyl]-N-methyl-acetamide] the value was 200 to 1000 nM; for `COc1ccc(Oc2cncc(N(C)CCN(C)C(C)=O)n2)cc1OC` [Compound 140, N-(2-{[6-(3,4-Dimethoxy-phenoxy)-pyrazin-2-yl]-methyl-amino}-ethyl)-N-methyl-acetamide], 1000 to 10000 nM. In turn, `COC(=O)CCc1ccc(Oc2cncc(N(C)CCN(C)C(C)=O)n2)cc1` [Compound 141, 3-[4-(6-{[2-(Acetyl-methyl-amino)-ethyl]-methyl-amino}-pyrazin-2-yloxy)-phenyl]-propionic acid methyl ester] displayed an IC50 of 1000 to 10000 nM. For `CC(=O)N(C)CCN(C)c1cncc(Oc2ccc(CC#N)cc2)n1` [Compound 142, N-(2-{[6-(4-Cyano-methyl-phenoxy)-pyrazin-2-yl]-methyl-amino}-ethyl)-N-methyl-acetamide] the value was below 200 nM; for `CC(=O)N(C)CCN(C)c1cncc(Oc2ccc(C(N)=O)cc2)n1` [Compound 143, 4-(6-{[2-(Acetyl-methyl-amino)-ethyl]-methyl-amino}-pyrazin-2-yloxy)-benzamide], 200 to 1000 nM. As for `CC(=O)N(C)CCN(C)c1cncc(Oc2ccc(-c3ccncc3C#N)cc2)n1` [Compound 144, N-[2-({6-[4-(3-Cyano-pyridin-4-yl)-phenoxy]-pyrazin-2-yl}-methyl-amino)-ethyl]-N-methyl-acetamide], the IC50 was below 200 nM. In turn, `CC(=O)N(C)CCN(C)c1cncc(Oc2ccc(/C=C/c3ccccn3)cc2)n1` [Compound 145, N-Methyl-N-[2-(methyl-{6-[4-((E)-2-pyridin-2-yl-vinyl)-phenoxy]-pyrazin-2-yl}-amino)-ethyl]-acetamide] gave a 50% inhibitory concentration (IC50) below 200 nM. Next, `CC(=O)N(C)CCN(C)c1cncc(Oc2ccc(-c3noc(C)n3)cc2)n1` [Compound 146, N-Methyl-N-[2-(methyl-{6-[4-(5-methyl-[1,2,4]oxadiazol-3-yl)-phenoxy]-pyrazin-2-yl}-amino)-ethyl]-acetamide]: 200 to 1000 nM. In the case of `CC(=O)N(C)CCN(C)c1cncc(Oc2ccc(C(=O)c3ccccc3)cc2)n1` [Compound 147], the IC50 is 200 to 1000 nM.

Consider `CCc1ccc(C2=NN(C(=O)c3ccc(Oc4cncc(N(C)CCN(C)C(C)=O)n4)cc3)CCC2)cc1` [Compound 148, N-{2-[(6-{4-[3-(4-Ethyl-phenyl)-5,6-dihydro-4H-pyridazine-1-carbonyl]-phenoxy}-pyrazin-2-yl)-methyl-amino]-ethyl}-N-methyl-acetamide], for which the concentration for half-maximal inhibition (IC50) is 1000 to 10000 nM. Molecule `CC(=O)N(C)CCN(C)c1cncc(Oc2ccc(N3CCNCC3)cc2)n1` [Compound 149, N-Methyl-N-(2-{methyl-[6-(4-piperazin-1-yl-phenoxy)-pyrazin-2-yl]-amino}-ethyl)-acetamide] had an IC50 of 1000 to 10000 nM. Next, `CC(=O)N(C)CCN(C)c1cncc(Oc2ccc(-c3ccccc3S(C)(=O)=O)cc2)n1` [Compound 150, N-(2-{[6-(2′-Methane-sulfonyl-biphenyl-4-yloxy)-pyrazin-2-yl]-methyl-amino}-ethyl)-N-methyl-acetamide]: below 200 nM; `CC(=O)N(C)CCN(C)c1cncc(Oc2ccc(-c3ccc(=O)[nH]n3)cc2)n1` [Compound 151, N-Methyl-N-[2-(methyl-{6-[4-(6-oxo-1,6-dihydro-pyridazin-3-yl)-phenoxy]-pyrazin-2-yl}-amino)-ethyl]-acetamide]: 200 to 1000 nM. The molecule `CC(=O)N(C)CCN(C)c1cncc(Oc2ccc(-c3ccc(F)cn3)cc2)n1` [Compound 152, N-[2-({6-[4-(5-Fluoro-pyridin-2-yl)-phenoxy]-pyrazin-2-yl}-methyl-amino)-ethyl]-N-methyl-acetamide] displayed an IC50 below 200 nM. Molecule `CC(=O)N(C)CCSc1cncc(Oc2ccc(-c3ccc(C)cn3)cc2)n1` [Compound 153, N-Methyl-N-(2-{6-[4-(5-methyl-pyridin-2-yl)-phenoxy]-pyrazin-2-ylsulfanyl}-ethyl)-acetamide] registered a half-inhibitory concentration (IC50) below 200 nM.
